US11691984B2, “Compounds and methods for DCAF-mediated protein degradation” (The Scripps Research Institute, priority 2018, dated 2023)

Assays:
[1] = target: T1, BRD2 (Homo sapiens, UniProt P25440); assay: Proteome-wide SILAC MS protein abundance in HEK293T cells: BRD2; type: cell-based; details: KB02-JQ1 20 μM, 24 hours
T1 construct: endogenous in cells; host or cells: HEK293T
Experimental: HEK293T light and heavy SILAC cells were treated with DMSO and KB02-JQ1 (20 μM) or KB02-SLF (2 μM) for 24 hours, respectively. Light and heavy cells were collected and lysed in 1% NP-40 lysis buffer with complete protease inhibitor cocktail. Cells were vortexed and sonicated for 5 pulses (40%, 4). The supernatant was collected after centrifugation at 16,000 g for 10 min at 4° C. Protein concentration was determined by DC assay. 50 μg proteome from light and heavy samples were mixed, followed by methanol/chloroform precipitation. […] Next, the ratio of the peak areas under the light and heavy signals (signal-to-noise ratio>2.5) was calculated. […] In addition, peptides detected as ‘singletons,’ where only the heavy ion of a peptide pair was identified, but that cleared all other filtering parameters, were given a default assigned ratio of ‘20,’ which is defined as any measured ratio that is ≥20 and is the maximum ratio reported here.” The median SILAC ratios from quantified peptides were used as measures of protein abundance. The following quality filters were further applied to generate the plot: (1) proteins must have at least two quantified peptides; (2) proteins must be present in both replicates; (3) for each protein, the standard deviation of measured ratios of peptides must be <1.0.

[2] = target: FLAG-FKBP12_NLS (Homo sapiens, UniProt P62942); assay: Anti-FLAG western blot of stably expressed nuclear FKBP12 (FLAG-FKBP12_NLS) in HEK293T cells; type: cell-based; set-up: expressed in transfected cells; host or cells: HEK293T, MDA-MB-231 and HEK293 DCAF16+/+ and DCAF16-/- clones (lentiviral pCDH-CMV-MCS-EF1-Puro); details: HEK293T
Source text: FLAG-tagged variants of FKBP12 (FLAG-FKBP12) or (2) FKBP12 with a C-terminal nuclear localization sequence (FLAG-FKBP12_NLS) were then stably expressed in HEK293T cells to provide cell models for evaluating cytosolic- and nuclear-localized E3-mediated degradation pathways, respectively.
FLAG-FKBP12 or FLAG-FKBP12_NLS lentivirus was generated by co-transfection of FLAG-FKBP12 or FLAG-FKBP12_NLS, pCMV-dR8.2 and pMD2.G into HEK 293T cells using FuGene 6 transfection reagent (Promega). Virus-containing medium were collected 48 h after transfection, filtered with […] filter, and used to transduce HEK293T and MDA-MB-231 cells in the presence of 10 μg/mL polybrene (Santa Cruz). 72 h after transduction, puromycin (2 μg/mL) was added to cells. HEK293T cells stably expressing FLAG-FKBP12 or FLAG-FKBP12_NLS were obtained after puromycin selection for 7 days. HEK293T cells stably expressing pCDH empty vector were generated in parallel as control.
shRNA lentivirus was generated by co-transfection of shRNA-containing vector, pCMV-dR8.2 and pMD2.G into HEK 293T cells using FuGene 6 transfection reagent (Promega). Virus-containing medium were collected 48 h after transfection and used to transiently transduce HEK293T cells stably expressing FLAG-FKBP12_NLS for 48 h. Lentiviral shRNAs targeting human DCAF16 or DTL were in pLKO.1 vector and purchased from Sigma. The sequences of shRNAs is described below.
Cells were collected and lysed in 1% NP-40 lysis buffer (25 mM Tris-HCl pH 7.4, 150 mM NaCl, 10% glycerol, 1% Nonidet P-40) with complete protease inhibitor cocktail (Roche). Cells were vortexed and sonicated for 5 pulses (40%, 4). The supernatant was collected after centrifugation at 16,000 g for 10 min at 4° C. Protein concentration was determined by DC assay (Bio-Rad). Protein lysate was heated at 95° C. for 5 min in 1× Laemmli sample buffer. Proteins were resolved by 12% or 14% Novex Tris-Glycine Mini Gels (Invitrogen) and transferred to polyvinylidene fluoride (PVDF) membrane (0.2 Bio-Rad). The membrane was blocked with 5% BSA in TBST buffer (0.1% Tween 20, 20 mM Tris-HCl 7.6, 150 mM NaCl) at room temperature for 1 h. The antibody was diluted with fresh 5% BSA in TBST buffer (1:10000 dilution for FLAG, HA and β-Actin, 1:1000 dilution for others) and incubated with membrane (1 h room temperature for FLAG, HA and β-Actin, overnight 4° C. for others). Membrane was washed three times with TBST buffer and incubated with secondary antibody (1:5000 dilution in 5% BSA in TBST) at room temperature for 1 h. Membrane was washed three times with TBST buffer. The chemiluminescence signal in membrane was recorded after developing in ECL or ECL plus western blotting detection reagent using CL-XPosure film (Thermo Scientific). Relative band intensities were quantified using ImageJ.

Sequence of FLAG-FKBP12_NLS (P62942 whole entry): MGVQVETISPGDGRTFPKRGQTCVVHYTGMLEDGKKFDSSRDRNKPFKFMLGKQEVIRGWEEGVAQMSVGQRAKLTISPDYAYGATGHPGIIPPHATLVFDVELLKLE
T1 sequence (P25440 whole entry): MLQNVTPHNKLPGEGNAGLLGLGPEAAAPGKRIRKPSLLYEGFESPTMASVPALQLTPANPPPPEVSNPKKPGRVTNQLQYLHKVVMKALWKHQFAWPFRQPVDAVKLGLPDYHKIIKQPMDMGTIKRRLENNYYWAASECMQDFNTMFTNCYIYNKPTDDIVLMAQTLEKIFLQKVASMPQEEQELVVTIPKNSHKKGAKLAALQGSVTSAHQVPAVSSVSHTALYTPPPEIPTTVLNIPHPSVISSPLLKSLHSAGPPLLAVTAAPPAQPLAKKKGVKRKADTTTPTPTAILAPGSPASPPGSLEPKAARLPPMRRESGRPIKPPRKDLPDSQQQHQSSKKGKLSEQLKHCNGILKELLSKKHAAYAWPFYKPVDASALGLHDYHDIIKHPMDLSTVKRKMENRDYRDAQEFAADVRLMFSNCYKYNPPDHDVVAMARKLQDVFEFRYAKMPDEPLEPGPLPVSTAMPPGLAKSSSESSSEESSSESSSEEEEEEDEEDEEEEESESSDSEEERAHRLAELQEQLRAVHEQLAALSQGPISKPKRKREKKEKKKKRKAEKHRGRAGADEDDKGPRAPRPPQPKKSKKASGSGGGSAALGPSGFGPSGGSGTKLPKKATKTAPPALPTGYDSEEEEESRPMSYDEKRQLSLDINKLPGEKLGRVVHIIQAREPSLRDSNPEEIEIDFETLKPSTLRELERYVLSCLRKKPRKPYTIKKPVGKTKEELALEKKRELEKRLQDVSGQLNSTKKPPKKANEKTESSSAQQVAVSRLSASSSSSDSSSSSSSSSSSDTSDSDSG

Row | Compound | BRD2 abundance (MS-based proteomics) [1] | concentration for degradation of FKBP12_NLS [2] | nuclear FKBP12 (FKBP12_NLS) protein level ([2]; 2 μM, 8 or 24 h) | KB02-SLF-mediated degradation of FKBP12_NLS after shRNA knockdown of DCAF16 ([2]; KB02-SLF 2 μM, 8 h) | KB02-SLF-mediated degradation of FKBP12_NLS after shRNA knockdown of DTL ([2]; KB02-SLF 2 μM, 8 h) | time frame across which the reduction in nuclear FKBP12 was sustained ([2]; KB02-SLF, FIG. 5A) | concentration across which loss of FKBP12_NLS was promoted ([2]; reductions in activity at higher concentrations, in µM)
1 | Cc1sc2c(c1C)C(c1ccc(Cl)cc1)=N[C@@H](CC(=O)NCCOCCOCCNC(=O)COc1ccc3c(c1)CCCN3C(=O)CCl)c1nnc(C)n1-2 [KB02-JQ1, (S)-2-((1-(2-chloroacetyl)-1,2,3,4-tetrahydroquinolin-6-yl)oxy)-N-(2-(2-(2-(2-(4-(4-chlorophenyl)-2,3,9-trimethyl-6H-thieno[3,2-f][1,2,4]triazolo[4,3-a][1,4]diazepin-6-yl)acetamido)ethoxy)ethoxy)ethyl)acetamide] | appeared to be stabilized |  |  |  |  |  | 
2 | CCC(C)(C)C(=O)C(=O)N1CCCC[C@H]1C(=O)O[C@H](CCc1ccc(OC)c(OC)c1)c1cccc(NC(=O)CCOCCOCCNC(=O)COc2ccc3c(c2)CCCN3C(=O)CCl)c1 [KB02-SLF, (R)-1-(3-(3-(2-(2-(2-((1-(2-chloroacetyl)-1,2,3,4-tetrahydroquinolin-6-yl)oxy)acetamido)ethoxy)ethoxy)propanamido)phenyl)-3-(3,4-dimethoxyphenyl)propyl (S)-1-(3,3-dimethyl-2-oxopentanoyl)piperidine-2-carboxylate] |  | 0.5 to 2 µM | substantial reduction in nuclear FKBP12 | substantially prevented KB02-SLF-mediated degradation of FKBP12_NLS | not DTL | 4 to 72 h | 0.5-5
